Entries after “also recorded” stand apart in the source; their conditions may differ. Blank lines part the entries; values can stand above or below the compound they belong to.
Experiments:
C2C12 myotubes = test: Deoxyglucose uptake in cultured myotubes (FIG. 11E); type: cell-based
Source text: (§1) Since CCG-1423 increased insulin signalling in myotubes, we hypothesized that CCG-1423 might also enhance glucose uptake. In DMSO (vehicle)-treated myotubes, insulin stimulated a 2-fold increase in deoxyglucose uptake in a dose-dependent manner, consistent with prior reports and the low insulin responsiveness in cultured myotubes (FIG. 11E). […] In parallel, expression of the dominant glucose transporters GLUT4 and GLUT1 was increased by CCG-1423 treatment by 4.1 and 2.5 fold, respectively (p<0.004).
(§2) To determine whether increased expression of STARS can modulate glucose uptake, basal and insulin-stimulated glucose uptake in are measured in L6 myotubes overexpressing STARS (day 6 of differentiation). In brief, following overnight serum starvation, myotubes are treated with insulin (0 to 100 nM) for 20 minutes and then incubated with transport solution (140 mM NaCl, 20 mM Hepes, 5 mM KCl, 2.5 mM MgSO4, 1.0 mM CaCl2, 10 μM 2-deoxyglucose, 0.5 μCi/mL [^3H]-2-deoxyglucose) for 10 minutes. Cells are lysed in 0.05N NaOH and radioactivity determined by scintillation counting. All assays are performed in quadruplicate and corrected by uptake in cytochalasin-treated wells. Glucose transport assays are also performed in STARS-Myc-GLUT4 cells, given their higher insulin responsiveness.

Myc-GLUT4 L6 myotubes = test: Glucose uptake in Myc-GLUT4 L6 myotubes; type: cell-based
Description: as §2
(§3) To address whether STARS and MKL1-dependent SRF transcriptional activity contribute to the pathophysiology of insulin resistance, experiments were performed to test whether modulation of STARS expression and/or SRF activation can improve key cellular phenotypes associated with insulin resistance, including insulin action and glucose uptake. L6 myotubes stably expressing Myc-GLUT4 were infected with an adenovirus containing a short hairpin targeting STARS, resulting in a 54% reduction in STARS protein expression; this was associated with a 3.7-fold increase in basal glucose uptake and a 3.6-fold increase in insulin-stimulated glucose uptake (FIG. 19A).
To test the effect of reduced STARS expression (shRNA) and reduced SRF pathway activation (chemical inhibitor CCG-1423) in cultured myotubes, knock-down assays were performed. shSTARS target sequences (Forward 5′-[…] […] A-3′ (SEQ ID NO:1); Reverse 5′-[…] […] […]-3′ (SEQ ID NO:2)), or scrambled control (IDT RNA design), were cloned into pAdTrack-CMV adenoviral vector, and Myc-GLUT4 L6 myotubes were infected with amplified adenovirus (8×10^7 pfu/well, 6-well plate) at 3 days after differentiation. […] Thus, experimental reductions in STARS expression are associated with an increase insulin signaling and basal glucose uptake in cultured myotubes.
Since genetic knockdown of STARS expression enhanced glucose transport, a key question is whether pharmacologic inhibition of SRF transcriptional activity would similarly modulate glucose transport. Studies with CCG-1423, an SRF transcriptional inhibitor identified by compound library screening, were performed. […] By comparison, insulin stimulated glucose uptake by 1.6-fold (p<0.01; FIG. 20).

STARS = STARS expression in C2C12 myotubes after actin disruption; type: cell-based; conditions: disruption of actin
Source text: Additional pathway analysis using MAPPFinder confirmed that serum response factor (SRF)-dependent and actin-related cytoskeleton gene expression is increased in diabetes, and more importantly, also in insulin resistance. The top-ranking single gene differentially expressed in skeletal muscle in the fasting state is the Actin-binding Rho activating protein (ABRA), or STARS, increased by 2.5 fold in individuals with type 2 diabetes (p<0.01). This gene regulates intracellular actin dynamics and subcellular localization of MKL1/2, thus contributing to SRF-dependent gene transcription. Since disruption of actin by latrunculin B increases STARS expression in C2C12 cells by 50% in C2C12 myotubes (p<0.03, not shown), it was hypothesize that increased STARS expression in DM may reflect disruption of actin dynamics and also contribute to the pattern of increased SRF-related gene expression. Similar patterns of SRF-dependent expression are also observed in adipose tissue from insulin resistant subjects and in insulin resistant muscle.

[1] = system: SRF transcriptional activity; test: SRF transcriptional activity, 4x CArG (SRE) promoter luciferase reporter in C2C12 cells; type: cell-based; conditions: activity induced by serum, dexamethasone or insulin, CCG-1423 1 μM, 16 hours pre-treatment (FIG. 10, 11B)
Description: FIG. 11B is a bar graph showing the effect of CCG on SRF transcriptional activity. 4× CArG promoter is activated in response to serum stimulation (FBS 2 hours, control) and following overnight treatment with 100 μM dexamethasone (DEX) in C2C12 myoblasts. This SRF-mediated transcriptional activity was blocked by pre-treatment with CCG-1423 (1 μM, 16 hours).
To determine whether SRF transcriptional activity is also changed in insulin resistance, 4× tandem repeat of SRF binding element (SRE) CArG boxes (Kuwahara et al., Mol. Cell Biol. 25:3173-3181 (2005)) promoters linked to a luciferase gene were used as a reporter. […] These increases in SRF transcriptional activity in insulin resistant states could cause up-regulation of SRF target gene expression.

Akt = Akt phosphorylation (phosphoimmunoblot) in C2C12 myotubes; type: cell-based; conditions: for increase in insulin-stimulated Akt phosphorylation: C2C12 myotubes, overnight 1 μM CCG-1423
Description: The next experiments were performed to determine whether SRF transcriptional activity, rather than expression of SRF itself, is important for maintaining appropriate insulin sensitivity. A new compound, CCG-1423, is available for specifically inhibiting SRF transcriptional activity (Evelyn et al., Mol. Cancer Ther. 6:2249-2260 (2007)). […] CCG-1423 was then evaluated to test the possibility that reducing SRF transcriptional activity improves insulin sensitivity. Indeed, this is the case.
(§4) In parallel, CCG-1423 enhanced insulin action in C2C12 myotubes. Overnight treatment with 1 μM CCG-1423 increased insulin-stimulated Akt phosphorylation, both in the presence and absence of dexamethasone (41% for both, p=0.01 and p=0.007, respectively), while having no effect on p42/44 ERK phosphorylation (FIG. 11C).

p42/44 ERK = p42/44 ERK phosphorylation in C2C12 myotubes; type: cell-based; conditions: overnight 1 μM CCG-1423 (FIG. 11C)
Description: as §4

IRS-1 = IRS-1 tyrosine phosphorylation and association with p85 PI 3-kinase in myotubes; type: cell-based
Description: FIG. 11D is a phosphoimmunoblot showing that CCG-1423 increases basal and insulin-stimulated tyrosine phosphorylation of IRS-1 and its association with p85-PI 3-kinase, in both control and DEX-treated myotubes. * indicates p<0.05, **p<0.01, ***p<0.001.
as §4

L6 myotubes = test: 2-deoxyglucose uptake in L6 myotubes (FIG. 11E legend); type: cell-based; conditions: CCG-1423 1 μM, 16 hours
Description: FIG. 11E is a line graph showing that both basal and insulin-stimulated 2-deoxyglucose uptake are increased by >4-fold in L6 myotubes following CCG-1423, with enhanced insulin sensitivity (1 μM, 16 hours). * indicates p<0.05, **p<0.01,***p<0.001.
as §2

GLUT4 = GLUT4 expression in myotubes; type: cell-based; conditions: myotubes treated with CCG-1423
Source text: as §1, §3

GLUT1 = GLUT1 expression in myotubes; type: cell-based; conditions: myotubes treated with CCG-1423
Source text: as §1, §3

human myotubes = test: Basal glucose uptake in human myotubes from control and diabetic subjects; type: cell-based
Description: The effects of CCG-1423 on human myotubes, and whether these effects would differ in myotubes derived from controls (n=2) vs. diabetic subjects (n=6), were also evaluated. […] The differential responsiveness in subjects with DM supports the concept that SRF pathways are more robustly activated in humans with insulin resistance and DM, and therefore potentially more sensitive to SRF inhibition.

MKL1 = MKL1 cellular localization in C2C12 myoblasts; type: cell-based
Description: Since MKL1 is known to shuttle between the cytosol and nucleus to modulate target gene expression (Vartiainen et al., Science. 316:1749-1752 (2007)), the possibility arises that MKL1 localization may differ in insulin resistant state as compared to the normal state. […] In the basal state, MKL1 predominantly localized to cytosol and partially in nucleus. After 30 minutes of serum stimulation, MKL1 translocated to the […]. […] To determine whether MKL1 and G actin complex formation is changed in insulin resistance, the nuclear and cytosolic fractions from C2C12 myotubes were co-immunoprecipitated with MKL1 and blotted with beta actin.
To determine if the effects of CCG-1423 on SRF activity were mediated via MKL1 localization, MKL1 localization was assessed in C2C12 myoblasts treated with CCG-1423.

[2] = CCG-1423 treatment of high-fat diet-fed mice (glucose tolerance, insulin, body weight); type: in vivo
Description: (§5) To examine the therapeutic potential of this SRF inhibitor in vivo, we assessed responses to CCG-1423 treatment in mice with diet-induced obesity. […] The HFD mice were administered CCG-1423 (0.15 mg/kg body weight intraperitoneally) for two weeks.
In parallel, the high insulin levels associated with insulin resistance were normalized by CCG-1423 treatment (FIG. 13C).
To test this hypothesis, mice are treated with CCG-1423 in 2 models of murine insulin resistance: (1) high-fat diet-fed C57BL/6J mice (60% of calories from fat), or (2) genetically obese ob/ob mice. For these studies, mice are injected with CCG-1423 0.15 mg/kg/day or vehicle (DMSO), intraperitoneally, for 2 weeks. Body weight and food intake are monitored daily.

[3] = system: SRF, ELK1, SRF targets (ZYX, PDLIM7); test: Gene expression in skeletal muscle of HFD mice treated with CCG-1423; type: in vivo
Description: as §5

[4] = control and DEX-treated myotubes (FIG. 11D)
[5] = HFD mice, CCG-1423 0.15 mg/kg intraperitoneally, two weeks, vs vehicle-treated HFD mice, 0.15 mg/kg
[6] = CCG-1423 0.15 mg/kg intraperitoneally, two weeks

Compound: insulin
- insulin-stimulated increase in deoxyglucose uptake (C2C12 myotubes; DMSO (vehicle)-treated myotubes, dose-dependent): 2 fold
- insulin-stimulated glucose uptake (Myc-GLUT4 L6 myotubes; Myc-GLUT4 L6 myotubes, insulin alone (FIG. 20)): 1.6 fold

Compound: C/C1=C/C(=O)O[C@@H]2C[C@@H](CC[C@H](C)/C=C\CC1)O[C@@](O)([C@@H]1CSC(=O)N1)C2 [latrunculin B]
- increase in STARS expression (STARS): 50%

- association of IRS-1 with p85 regulatory subunit of PI 3-kinase (IRS-1; [4]): increases
- basal and insulin-stimulated tyrosine phosphorylation of IRS-1 (IRS-1; [4]): increases
- p85 expression (IRS-1; myotubes treated with CCG-1423): without altering
Compound: CC(ONC(=O)c1cc(C(F)(F)F)cc(C(F)(F)F)c1)C(=O)Nc1ccc(Cl)cc1 (stereo not shown) [CCG-1423]
- inhibition of SRF transcriptional activity / SRE promoter activity [1]: specifically blocks SRF transcriptional activity; also recorded: reduced SRE promoter activity and efficiently blocked both serum- and dexamethasone-stimulated activation; also recorded: reduces SRE promoter activity; also recorded: inhibits SRF activity
- increase in insulin-stimulated Akt phosphorylation (Akt; absence of dexamethasone): 41%
- increase in insulin-stimulated Akt phosphorylation (Akt; presence of dexamethasone): 41%
- insulin-stimulated Akt phosphorylation (marker of insulin sensitivity) (Akt; myotubes, with or without dexamethasone, insulin 100 nM, 10 minutes (FIG. 11A, 11C)): increased insulin-simulated Akt phosphorylation; also recorded: improves insulin-stimulated Akt phosphorylation; also recorded: increases insulin-stimulated Akt phosphorylation
- p42/44 ERK phosphorylation (p42/44 ERK): no effect; also recorded: minimal change
- increase in glucose uptake, basal state (C2C12 myotubes; myotubes incubated with CCG-1423 (FIG. 11E)): 4 fold
- insulin-stimulated glucose uptake response (C2C12 myotubes; myotubes incubated with CCG-1423, 1 μM insulin (FIG. 11E)): 11.5 fold
- increase in basal and insulin-stimulated 2-deoxyglucose uptake (L6 myotubes): > 4 fold
- increase in GLUT4 expression (GLUT4): 4.1 fold
- increase in GLUT1 expression (GLUT1): 2.5 fold
- basal increase in glucose uptake, mean (human myotubes; human myotubes from control subjects (n=2)): 1.2 fold
- basal increase in glucose uptake, mean (human myotubes; human myotubes from diabetic subjects (n=6)): 3.2 fold
- basal and insulin-stimulated glucose uptake (figure legend) (Myc-GLUT4 L6 myotubes; Myc-GLUT4 L6 myotubes (FIG. 19A, FIG. 20)): increases basal and insulin-stimulated 2-deoxyglucose uptake
- increase in basal glucose uptake (Myc-GLUT4 L6 myotubes; Myc-GLUT4 L6 myotubes, CCG-1423 1 μM, 16 hours): 1.9 fold
- increase in glucose uptake, combination with insulin (Myc-GLUT4 L6 myotubes; Myc-GLUT4 L6 myotubes, combination of CCG-1423 and insulin): 2.6 fold
- MKL1 cytosol/nuclear localization (MKL1): almost exclusively localized to the cytoplasm; also recorded: reversed dexamethasone-induced MKL1 nuclear localization to partial cytoplasmic localization; also recorded: inhibition of MKL1 nuclear localization; also recorded: reduced nuclear translocation of MKL1
- serum insulin levels during glucose tolerance test ([2]; HFD mice, 15 minutes after glucose injection, vs vehicle-treated HFD animals): normalized; also recorded: significantly reduced
- body weight [2, 5]: No significant change; also recorded: no differences; also recorded: not altered
- food intake [2, 5]: No significant change; also recorded: no differences
- in vivo glucose tolerance (intraperitoneal glucose tolerance test) [2, 5]: significantly improved; also recorded: improves glucose tolerance; also recorded: improved in vivo glucose tolerance
- adiponectin levels ([2]; HFD mice, CCG-1423 two weeks): No differences
- circulating fatty acid levels ([2]; HFD mice, CCG-1423 two weeks): No differences
- insulin tolerance testing ([2]; HFD mice, CCG-1423 two weeks): No differences
- glucose tolerance test area under the curve (AUC) ([2]; HFD mice, CCG-1423 two weeks, vs vehicle-treated HFD animals): significantly reduced
- reduction of fed insulin levels ([2]; HFD-fed mice, CCG-1423 0.15 mg/kg/day intraperitoneally, 2 weeks, vs HFD-fed mice): 50%
- expression of ELK1 [3, 6]: did not alter
- expression of SRF [3, 6]: did not alter
- expression of SRF targets in skeletal muscle, e.g., ZYX and PDLIM7 ([3]; CCG-1423 two weeks, vs vehicle-injected controls): significantly decreased

From patent publication US8815799B2, “Inhibiting striated muscle activator of RHO (stars) to improve glycemic control” (Joslin Diabetes Center, Inc., priority 2010, dated 2014)
